For two molecules, Ki and Km results are on record in paper PMC3472114 (Journal of molecular biology, 2012).

Data set [1] concerns the target T1, galactosamine-6-sulfatase (GALNS) (Homo sapiens, UniProt P34059).
T1 sequence (P34059 27-522): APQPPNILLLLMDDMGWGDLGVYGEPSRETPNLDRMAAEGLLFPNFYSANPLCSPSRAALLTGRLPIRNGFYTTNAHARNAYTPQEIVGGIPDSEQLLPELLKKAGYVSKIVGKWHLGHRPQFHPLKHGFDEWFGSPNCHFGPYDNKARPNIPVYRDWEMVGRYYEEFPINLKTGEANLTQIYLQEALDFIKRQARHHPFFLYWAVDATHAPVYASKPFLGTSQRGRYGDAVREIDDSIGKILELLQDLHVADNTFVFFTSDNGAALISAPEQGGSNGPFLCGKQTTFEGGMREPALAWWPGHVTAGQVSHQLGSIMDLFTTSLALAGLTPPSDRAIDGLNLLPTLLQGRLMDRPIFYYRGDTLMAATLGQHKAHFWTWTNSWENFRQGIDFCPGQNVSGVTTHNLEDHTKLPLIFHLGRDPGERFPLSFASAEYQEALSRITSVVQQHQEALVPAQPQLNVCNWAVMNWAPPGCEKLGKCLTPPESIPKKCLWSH
The data set can be described thus: biochemical.

Substrate in data set [2]: Cc1cc(=O)oc2cc(O[C@@H]3O[C@H](COS(=O)(=O)O)[C@H](O)[C@H](O)[C@H]3O)ccc12
The data set is classed as biochemical, Homo sapiens. As to conditions: Ca2+; Cys79 modified to formylglycine/dihydroxyalanine (DHA) active site.

`O=S(=O)(O)O` [sulfate]: the affinity in data set [1] corresponds to a Ki of 570 ± 150 µM.

B1: galactosamine-6-sulfatase (GALNS) (Homo sapiens) (protein)
chain: APQPPNILLLLMDDMGWGDLGVYGEPSRETPNLDRMAAEGLLFPNFYSANPLCSPSRAALLTGRLPIRNGFYTTNAHARNAYTPQEIVGGIPDSEQLLPELLKKAGYVSKIVGKWHLGHRPQFHPLKHGFDEWFGSPNCHFGPYDNKARPNIPVYRDWEMVGRYYEEFPINLKTGEANLTQIYLQEALDFIKRQARHHPFFLYWAVDATHAPVYASKPFLGTSQRGRYGDAVREIDDSIGKILELLQDLHVADNTFVFFTSDNGAALISAPEQGGSNGPFLCGKQTTFEGGMREPALAWWPGHVTAGQVSHQLGSIMDLFTTSLALAGLTPPSDRAIDGLNLLPTLLQGRLMDRPIFYYRGDTLMAATLGQHKAHFWTWTNSWENFRQGIDFCPGQNVSGVTTHNLEDHTKLPLIFHLGRDPGERFPLSFASAEYQEALSRITSVVQQHQEALVPAQPQLNVCNWAVMNWAPPGCEKLGKCLTPPESIPKKCLWSH
B1: the Km (commonly the substrate concentration at which the rate is half of its maximum) in data set [2] amounted to 13 ± 2 mM.
